Laboratory results reported in patent US5441743A, “Marine compositions bearing preferentially concentrated domains of non-tin, organo anti-fouling agents” (priority 1993, dated 1995).
Several values for one entry are separate records, joined by “and”; a condition that tells them apart may be missing. Identical values can stand only once. Like-named read-outs stand apart in the source and are kept apart here.

Tests used:
fouling = assay: Anti-fouling panel exposure in the ocean at Daytona Beach, rating 0 to 10; settings: for General Rating, 6 Mos. / General Rating, 1 Mo. / General Rating, 4 Mos.: Example 15, Table 7, agent as is
Description: Test panels were 15.24 cm×30.48 cm (6 in×12 in) in dimension and were constructed of a white plastic top surface and a black plastic bottom surface. The test panels were coated on both sides with the two formulations above-tabulated at a film thickness of about 5 mils dry. The test panels then were exposed horizontally with the white surface upward and the black surface downward in the ocean at Daytona Beach, Fla., U.S.A. A control panel consisted of 12 wt-% triphenyl tin hydroxide dispersed in a resinous vinyl binder (80 wt-parts of a vinyl chloride polymer, VAGH brand, Union Carbide Corporation, New York, N.Y.) reduced in methyl ethyl ketone solvent to 50% solids content. After exposure, the control and test panels were inspected and assigned a numerical rating from 0 to 10 based on the amount of surface area of the panel that was free from fouling, a rating of "10" corresponding to perfect protection. The following results were recorded.

rats or mice = settings: cited from earlier work
rats = settings: oral; cited from earlier work
fish = settings: in words; cited from earlier work
mammalian = settings: in words; cited from earlier work
[1] = SEM / Energy Dispersion Spectroscopy analysis of cured epoxy resin; type: physicochemical; settings: Example 16, Sample 2 (FIG. 2); EDS
Description: An epoxy resin system was examined for its ability to be modified so as to preferentially influence the concentration or location of an anti-fouling agent (Nopocide N-96, see Example 1) within its structure. A direct comparison was made between an epoxy resin (EPON 828 epoxy resin, diglycidyl ether of bis-phenol A, Shell Chemical Company) and the same epoxy resin containing a domain structuring polymeric material, such as a polysulfide resin (LP-32 polysulfide resin, Thiokol Corporation). Both systems contained the same anti-fouling agent. The compositions formulated are set forth below: […]

[2] = Example 14, Table 6, additive at 20 wt-%
[3] = Example 12, Table 4, additive at 20 wt-%
[4] = listed as 2,3-Dichloro-1,4-Naphthaquinone
[5] = Example 11, Table 3, additive at 20 wt-%, 10 is perfect protection
[6] = Example 10, 20 wt-% in Control Paint, 10 is perfect protection
[7] = Example 13, Table 5, additive at 20 wt-%

For `O=C(Nc1cccc2c(NC(=O)n3ccnc3)cccc12)n1ccnc1`, the “Rating After Exposure, 1 Months” value (fouling; [2]) was 6-7 and the “Rating After Exposure, 4 Months” value (fouling; [2]) was 0.

In the case of `O=C1OC(=O)C2C1C1(Cl)C(Cl)=C(Cl)C2(Cl)C1(Cl)Cl` (centres unmarked) [1,4,5,6,7,7-hexachloro-5-norborene-2,3-dicarboxylic anhydride], the “Rating After Exposure, 4 Months” value (fouling; [3]) was 0.

In the case of `O=C1C(Cl)=C(Cl)C(=O)c2ccccc21` [2,3-dichloro-1,4-napthoquinone], the “General Rating, 6 Mos.” value (fouling) was 0, the “General Rating, 1 Mo.” value (fouling; [4]) was 7 and 5 and the “General Rating, 4 Mos.” value (fouling; [4]) was 6 and 3.

In the case of `Nc1cc(Cl)ccc1Cl` [2,5-Dichloroaniline], the “Rating After Exposure, 4 Months” value (fouling; [5]) was 0 and the “Rating After Exposure, 462 Days” value (fouling; [5]) was 0.

In the case of `Nc1cc(Cl)cc(C(=O)O)c1Cl` [2,5-dichloro,3-amino benzoic acid], the LD50 value (rats or mice; in vivo, po) is listed as 5,620.

In the case of `Nc1c(Cl)cc([N+](=O)[O-])cc1Cl` [2,-6-dichloro, 4-nitroaniline], the “Rating After Exposure, 4 Months” value (fouling; [5]) was 0 and the “Rating After Exposure, 462 Days” value (fouling; [5]) was 0.

For `C=C(Cl)CSC(=S)N(CC)CC` [2-chloro-2-propenyl diethylcarbamodithioate], the LD50 value (rats or mice; in vivo, po) is listed as 850.

In the case of `C=CCN(CC=C)C(=O)CCl` [2-chloro-N,N-diallylacetamide], the “General Rating, 1 Mo.” value (fouling) was 5, the “General Rating, 4 Mos.” value (fouling) was 4 and the “General Rating, 6 Mos.” value (fouling) was 0. The LD50 value (rats or mice; species not given, in mg/kg) was 750 and the LD50 value (rats) was 700 mg/kg.

In the case of `CCNc1nc(Cl)nc(NC(C)C)n1` [2-isopropylamino-4-chloro-6-ethylamino triazine], the LD50 value (rats) is listed as 1869 mg/kg.

With `Nc1ccc(Cl)c(Cl)c1` [3,4-Dichloroaniline] the “Rating After Exposure, 4 Months” value (fouling; [5]) was 0 and the “Rating After Exposure, 462 Days” value (fouling; [5]) was 0.

With `CN(C)C(=O)Nc1ccc(Cl)c(Cl)c1` [3-(3,4-Dichlorophenyl)-1,1-dimethyl urea] the “Rating After Exposure, 1 Months” value (fouling; [2]) was 9 and the “Rating After Exposure, 4 Months” value (fouling; [2]) was 0.

In the case of `C=CCc1ccc(O)c(OC)c1` [Eugenol, 4-allyl-2-methoxyphenol], the “General Rating, 1 Mo.” value (fouling) was 9 and 7, the “General Rating, 4 Mos.” value (fouling) was 3 and the “General Rating, 6 Mos.” value (fouling) was 0. For the same compound, the LD50 value (rats) was 2,000 mg/kg.

With `N#Cc1c(Cl)c(Cl)c(Cl)c(Cl)c1C#N` [Nopocide, 1,2-dicyano, tetrachlorobenzene] the “Rating After Exposure, 4 Months” value (fouling; [6]) was 0 and the “Rating After Exposure, 462 Days” value (fouling; [6]) was 0.

With `c1ccc2c(c1)Nc1ccccc1S2` [Phenothiazine] the “Rating After Exposure, 4 Months” value (fouling; [3]) was 0.

In the case of `C#CC(C)(C)NC(=O)c1cc(Cl)cc(Cl)c1` [Pronamide, 3,5-dichloro-N-(3,3-dimethylpropyne)benzamide], the “Rating After Exposure, 1 Months” value (fouling; [7]) was 0 and the “Rating After Exposure, 4 Months” value (fouling; [7]) was 0.

For `C=CCC1=C(C)C(OC(=O)C2C(C=C(C)C)C2(C)C)CC1=O` (centres unmarked) [allyl, methylhydroxy substituted cyclopententone ester of dimethylpropenyl cyclopropane carboxylic acid], the LD50 value (rats or mice; species not given, in mg/kg) is given as 1,000.

For `Nc1cnn(-c2ccccc2)c(=O)c1Cl` [amino, chloro, phenyl derivative of azacyclohexamine], the LD50 value (rats or mice; species not given, in mg/kg) is given as 3,030.

For `O=C(O)CNCP(=O)(O)O` [aminoacetic acid derivative of methylphosphonate], the LD50 value (rats or mice; species not given, in mg/kg) is listed as 4,300.

In the case of `OB(O)O` [boric acid], the anti-fouling activity (fouling; in words) is given as “quite active as an anti-fouling agent” and the LD50 value (rats) is given as 3,000 mg/kg.

In the case of `CCCCCCCCCCCCCCCC[n+]1ccccc1` [cetylpyridinium chloride], the LD50 value (rats) is listed as 200 mg/kg.

For `CCCCCCCCCCCCCCCC[N+](C)(C)C.[Br-]` [cetyltrimethylammonium bromide], the LD50 value (rats) is listed as 500 mg/kg.

In the case of `C=CCC1=C(C)C(OC(=O)[C@@H]2[C@@H](C=C(C)C)C2(C)C)CC1=O` (stereo partly drawn) [d-Trans-Allerthrin], the “Rating After Exposure, 1 Months” value (fouling; [7]) was 0-1 and the “Rating After Exposure, 4 Months” value (fouling; [7]) was 0.

In the case of `COP(=S)(OC)Oc1ccc(Sc2ccc(OP(=S)(OC)OC)cc2)cc1` [dimethoxythiophosphate derivative of diphenyl sulfide], the LD50 value (rats) is given as 2030 mg/kg.

For `C#CCOS(=O)OC1CCCCC1Oc1ccc(C(C)(C)C)cc1` (centres unmarked) [dimethylethylphenoxy-cyclohexyl-2-propynyl sulfite], the LD50 value (rats or mice; species not given, in mg/kg) is listed as 2,200.

In the case of `CC(C)C(C(=O)OC(C#N)c1cccc(Oc2ccccc2)c1)c1ccc(Cl)cc1` (centres unmarked) [diphenyl ether, chlorophenyl derivative of the isobutyric acid ester of hydroxyacetonitrile], the toxicity to fish (fish) is given as “toxic to fish” and the LD50 value (rats or mice; in vivo, po) is given as 451.

For `c1ccc(Nc2ccccc2)cc1` [diphenylamine], the mammalian toxicity (mammalian) is given as “Low mammalian toxicity”, the “General Rating, 1 Mo.” value (fouling) is given as 5 and the “General Rating, 6 Mos.” value (fouling) is given as 0. For the same compound, the “General Rating, 4 Mos.” value (fouling; listed as Diphenylanaline) was 4 and 3.

For `CCCCCCCCCCCCNC(=N)N` [dodecylguanidine monoacetate], the LD50 value (rats or mice; species not given, in mg/kg) is given as 1,000.

In the case of `CCOC(=O)C(O)(c1ccc(Cl)cc1)c1ccc(Cl)cc1` [ethyl 4-chloro-alpha(4-chlorophenyl)alpha-hydroxy benzene acetate], the LD50 value (rats) is given as 5,000 mg/kg.

In the case of `Oc1c(Cl)cc(Cl)c(Cl)c1Cc1c(O)c(Cl)cc(Cl)c1Cl` [hexachlorophene], the “chlorine concentration in round island domains” value [1] was 48% and the “chlorine concentration in sea-like domains” value [1] was 36%.

For `CCN(CC)c1nc(C)cc(OP(=S)(OC)OC)n1` [methyl, diethylamino, dimethoxythiophosphate derivative of pyrimidine], the LD50 value (rats) is given as 2,000 mg/kg.

In the case of `NC(=O)Cc1cccc2ccccc12` [napthalene acetamide], the LD50 value (rats or mice; in vivo, po) is listed as 1,000.

In the case of `Oc1ccccc1-c1ccccc1` [o-phenylphenol], the LD50 value (rats or mice; species not given, in mg/kg) is listed as 2,700.

In the case of `O=C(O)Cc1c(Cl)ccc(Cl)c1Cl` [trichlorophenyl acetic acid], the LD50 value (rats or mice; species not given, in mg/kg) is given as 1,780.
